Data taken from article PMC5059921, “Chalepin: isolated from Ruta angustifolia L. Pers induces mitochondrial mediated apoptosis in lung carcinoma cells” (BMC Complementary and Alternative Medicine, 2016).
Converted amounts (≈) assume the structure as drawn. Read-outs that look alike come from different tables or passages of the source.

Tests used:
[1] = tested on: hepatitis C virus, hepatoma cell line (Huh7.5); parameters: method as in PMID 25454460; details: cited from earlier work
[2] = tested on: MRC5 (human normal lung fibroblasts); test: SRB in vitro cytotoxicity screening (toxicity to normal cells); type: cell-based; details: Homo sapiens, MRC5, isolated compounds, 72 h, read-out: IC50 in μg/ml (μM) (MRC5) 72 h (converted)
Method: (§1) The human cell lines A549 (lung cancer) and Ca Ski (cervical cancer) were cultured as monolayer in RPMI 1640 growth media whereas HCT-116 (colon cancer) and MRC5 (human normal lung fibroblasts) was cultured in McCoy’s 5A and EMEM medium, respectively. All cells were purchased from the […] (ATCC, USA). All the media were supplemented with 10 % v/v foetal bovine serum (FBS), 100 μg/mL penicillin/streptomycin, and 50 μg/mL amphotericin B. The cells were cultured in a 5 % CO2 incubator at 37 °C.
(§2) The monolayer cell culture was detached using accutase and the cell count was adjusted to 2.5 x10^5 -3.0 x10^5 cells/mL using medium containing feotal bovine serum. The cells were then plated into 96 wells with a cell density of 5000-7000 cells/well and then incubated for 24 h to allow adherence of cells to the base of well of the plates. The media was then removed and 200 μl of fresh media containing different concentration of various extracts or isolated compounds were added. Cisplatin was used as the positive control. The plates were incubated for 24, 48 and 72 h at 37 °C and 5 % CO2. The cytotoxicity of the extracts and isolated compounds were screened using the […] (SRB) assay. This assay was first described by Houghton in 2007 [8]. The incubation was halted by gentle addition of 50 μl ice cold 4 % trichloroacetic acid (TCA) to each well and the plates were incubated at 4 °C for 1 h. Then, the supernatant was discarded and the plates were washed with distilled water for 5 times and then air dried. SRB dye, 50 μl, (0.4 % w/v) was added into each well and the treated cells and control were incubated at room temperature for 30 min. The unbound dye was removed by rapid washing four times with 1 % acetic acid. The plates were then air dried and 100 μl of tris base (10 mM unbuffered, pH 10.5) was added and the plates were shaken at 500 rpm for 5 min to solublize the bound SRB stain. The plates were then read with an ELISA reader (Synergy H1 Hybrid) at an absorbance of 492 nm.

[3] = tested on: A549 cell line; test: SRB in vitro cytotoxicity screening; type: cell-based, human; details: Homo sapiens, A549, isolated compounds
Method: as §1, §2

[4] = tested on: A-549 tumour cell line; details: cited from earlier work
[5] = tested on: DLD (DLD-1): Human colon adenocarcinoma; parameters: method as in earlier work; details: cited from earlier work
[6] = tested on: washed rabbit platelets; parameters: method as in earlier work; details: cited from earlier work; for % inhibition of platelet aggregation, inducer AA: AA 100 /c109/c77; for % inhibition of platelet aggregation, inducer Col: collagen 10 /c109g/mL; for % inhibition of platelet aggregation, inducer PAF: PAF 2ng/mL; for % inhibition of platelet aggregation, inducer Thr: thrombin 0.1 U/mL
[7] = tested on: Hepa: Human hepatoma; parameters: method as in earlier work; details: cited from earlier work
[8] = tested on: Hela: Human cervix epithelioid carcinoma; parameters: method as in earlier work; details: cited from earlier work
[9] = tested on: skin epidermoid carcinoma (A431); parameters: method as in PMID 17109253; details: arborinine isolated from Ruta graveolens; cited from earlier work
[10] = tested on: breast adenocarcinoma (MCF-7); parameters: method as in PMID 17109253; details: arborinine isolated from Ruta graveolens; cited from earlier work
[11] = tested on: cervical carcinoma (HeLa); parameters: method as in PMID 17109253; details: arborinine isolated from Ruta graveolens; cited from earlier work
[12] = 48 h, value in brackets, read-out: IC50 in μg/ml (μM) (A549) 48 h (converted)
[13] = 48 h, read-out: IC50 in μg/ml (μM) (A549) 48 h (converted)
[14] = 72 h, value in brackets, read-out: IC50 in μg/ml (μM) (A549) 72 h (converted)
[15] = 72 h, read-out: IC50 in μg/ml (μM) (A549) 72 h (converted)

CCCCCCCCCc1cc(=O)c2ccccc2[nH]1 [pseudane IX]
replication of hepatitis C virus [1]: stop the replication

C=CC(C)(C)c1cc2cc3c(cc2oc1=O)OC(C(C)(C)OC(C)=O)C3 (stereo not shown) [Rutamarin, rutamarin]
IC50 ([2]; value in brackets): > 281 µM | IC50 [2]: > 100 µg/mL | IC50 [3, 12]: 158 µM | IC50 [3, 13]: 56.3 ± 1.53 µg/mL | IC50 [3, 14]: 192 µM | IC50 [3, 15]: 68.5 ± 3.06 µg/mL | IC50 against A549 cell line [4]: 1.318 µg/mL (≈ 3.7 µM)

graveolinine [Compound 16]
ED50 DLD [5]: - (“-“: ED50 /c6220 /c109g/mL) | % inhibition of platelet aggregation, inducer AA ([6]; Conc. 0.2 /c109g/mL): 6.8% | % inhibition of platelet aggregation, inducer AA ([6]; Conc. 0.5 /c109g/mL): 14.9% | % inhibition of platelet aggregation, inducer Col ([6]; Conc. 0.5 /c109g/mL): 5.8% | % inhibition of platelet aggregation, inducer AA ([6]; Conc. 1 /c109g/mL): 26.9% | % inhibition of platelet aggregation, inducer Col ([6]; Conc. 1 /c109g/mL): 19.2% | % inhibition of platelet aggregation, inducer AA ([6]; Conc. 2 /c109g/mL): 38.4% | % inhibition of platelet aggregation, inducer Col ([6]; Conc. 2 /c109g/mL): 25.4% | % inhibition of platelet aggregation, inducer AA ([6]; Conc. 5 /c109g/mL): 71.2% | % inhibition of platelet aggregation, inducer Col ([6]; Conc. 5 /c109g/mL): 33.3% | % inhibition of platelet aggregation, inducer AA ([6]; Conc. 10 /c109g/mL): 73.1% | % inhibition of platelet aggregation, inducer Col ([6]; Conc. 10 /c109g/mL): 49.5% | % inhibition of platelet aggregation, inducer AA ([6]; Conc. 20 /c109g/mL): 77.4% | % inhibition of platelet aggregation, inducer Col ([6]; Conc. 20 /c109g/mL): 72.6% | % inhibition of platelet aggregation, inducer AA ([6]; Conc. 50 /c109g/mL): 100.0% | % inhibition of platelet aggregation, inducer Col ([6]; Conc. 50 /c109g/mL): 81.2% | % inhibition of platelet aggregation, inducer AA ([6]; Conc. 100 /c109g/mL): 100.0% | % inhibition of platelet aggregation, inducer PAF ([6]; Conc. 100 /c109g/mL): 34.6% | % inhibition of platelet aggregation, inducer Col ([6]; Conc. 100 /c109g/mL): 100.0% | % inhibition of platelet aggregation, inducer Thr ([6]; Conc. 100 /c109g/mL): 9.0% | ED50 Hepa [7]: - (“-“: ED50 /c6220 /c109g/mL) | ED50 Hela [8]: - (“-“: ED50 /c6220 /c109g/mL)

COc1cc2c(c(O)c1OC)c(=O)c1ccccc1n2C [Arborinine, arborinine]
IC50 ([2]; value in brackets): 73 µM | IC50 [2]: 20.8 ± 0.15 µg/mL | IC50 [3, 12]: 97.2 µM | IC50 [3, 13]: 27.7 ± 0.26 µg/mL | IC50 [3, 14]: 46 µM | IC50 [3, 15]: 13.1 ± 0.06 µg/mL | IC50 [9]: 12.95 µg/mL (≈ 45.4 µM) | IC50 [10]: 11.74 µg/mL (≈ 41.1 µM) | IC50 [11]: 1.84 µg/mL (≈ 6.45 µM)

bergapten [Compound 9]
ED50 DLD [5]: - (“-“: ED50 /c6220 /c109g/mL) | % inhibition of platelet aggregation, inducer AA ([6]; Conc. 50 /c109g/mL): 63.5% | % inhibition of platelet aggregation, inducer PAF ([6]; Conc. 50 /c109g/mL): 4.5% | % inhibition of platelet aggregation, inducer Col ([6]; Conc. 50 /c109g/mL): 59.0% | % inhibition of platelet aggregation, inducer Thr ([6]; Conc. 50 /c109g/mL): 7.5% | antiplatelet aggregation activity (in words) ([6]; at 100 /c109g/mL): no obvious activity | ED50 Hepa [7]: - (“-“: ED50 /c6220 /c109g/mL) | ED50 Hela [8]: - (“-“: ED50 /c6220 /c109g/mL)

rutamarin [Compound 4]
IC50 A-549 [4]: 1318 µg/mL

CC(=O)O[C@H]1C(=O)[C@@]2(C)[C@H]([C@H](OC(=O)c3ccccc3)[C@]3(O)C[C@H](OC(=O)[C@H](O)[C@@H](NC(=O)c4ccccc4)c4ccccc4)C(C)=C1C3(C)C)[C@]1(OC(C)=O)CO[C@@H]1C[C@@H]2O [Taxol, reference compound]
IC50 A-549 [4]: 16.6 µg/mL (≈ 19.4 µM)
